According to ChEMBL document CHEMBL1201862, “PubChem BioAssay data set” (2004):
Active and inactive are the calls of the source. Rule as the data show it, for most assays here: actives have a measured IC50 and inactives only a lower limit.

Experiments:
[1] = biological target: T1, Sentrin-specific protease 6 (Homo sapiens, UniProt Q9GZR1); experiment: SAR Analysis of small molecule inhibitors of Sentrin-specific protease 6 (SENP6) using a Luminescent assay. [Related pubchem assays (depositor defined):AID2582, AID2599]; format: functional
T1 sequence (Q9GZR1 whole entry): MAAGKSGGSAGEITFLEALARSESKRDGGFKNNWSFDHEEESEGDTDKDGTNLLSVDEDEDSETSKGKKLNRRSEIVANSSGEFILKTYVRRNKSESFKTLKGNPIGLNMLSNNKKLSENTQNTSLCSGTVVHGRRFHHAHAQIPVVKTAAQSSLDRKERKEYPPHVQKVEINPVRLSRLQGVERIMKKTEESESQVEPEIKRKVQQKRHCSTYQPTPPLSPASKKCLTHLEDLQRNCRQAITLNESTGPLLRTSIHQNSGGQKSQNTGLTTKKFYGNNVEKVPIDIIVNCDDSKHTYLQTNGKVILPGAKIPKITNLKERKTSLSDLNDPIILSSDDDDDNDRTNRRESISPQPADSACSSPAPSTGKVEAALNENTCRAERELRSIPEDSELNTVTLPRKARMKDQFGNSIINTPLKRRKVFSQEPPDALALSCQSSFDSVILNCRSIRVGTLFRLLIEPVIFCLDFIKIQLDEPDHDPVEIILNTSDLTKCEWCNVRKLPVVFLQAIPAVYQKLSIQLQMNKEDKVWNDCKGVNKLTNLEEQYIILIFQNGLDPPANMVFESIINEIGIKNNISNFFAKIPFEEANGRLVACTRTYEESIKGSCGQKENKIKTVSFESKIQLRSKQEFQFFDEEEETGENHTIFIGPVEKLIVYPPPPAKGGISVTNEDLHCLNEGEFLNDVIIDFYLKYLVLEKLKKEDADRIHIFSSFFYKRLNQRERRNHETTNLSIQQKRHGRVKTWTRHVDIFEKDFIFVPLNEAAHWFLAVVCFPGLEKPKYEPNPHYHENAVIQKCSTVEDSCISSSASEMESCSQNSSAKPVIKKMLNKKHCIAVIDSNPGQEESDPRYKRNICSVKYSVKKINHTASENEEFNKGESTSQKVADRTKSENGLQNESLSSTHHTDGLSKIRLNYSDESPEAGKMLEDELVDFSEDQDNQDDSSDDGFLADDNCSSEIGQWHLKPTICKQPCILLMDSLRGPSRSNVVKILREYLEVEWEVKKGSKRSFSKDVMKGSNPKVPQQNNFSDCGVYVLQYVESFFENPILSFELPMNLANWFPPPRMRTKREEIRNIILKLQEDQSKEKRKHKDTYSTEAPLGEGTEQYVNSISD

[2] = biological target: SUMO-activating enzyme (Homo sapiens, UniProt Q9UBT2); experiment: inhibitors of in vitro SUMOylation cascade, primary screen, biochemical, HTRF, uHTS (AID 2006); format: protein-complex assay
[3] = biological target: Small ubiquitin-related modifier 1 (Homo sapiens, UniProt P63165); experiment: inhibitors of SUMO1 partner interactions, dose response, biochemical, FRET (AID 624383); format: functional; details: read-out: IC50_Mean
[4] = biological target: T2, Mannose-6-phosphate isomerase (Homo sapiens, UniProt P34949); experiment: inhibitors of human PMI, primary screen, biochemical, fluorescence intensity, coupled assay (AID 1209)
T2 sequence (P34949 whole entry): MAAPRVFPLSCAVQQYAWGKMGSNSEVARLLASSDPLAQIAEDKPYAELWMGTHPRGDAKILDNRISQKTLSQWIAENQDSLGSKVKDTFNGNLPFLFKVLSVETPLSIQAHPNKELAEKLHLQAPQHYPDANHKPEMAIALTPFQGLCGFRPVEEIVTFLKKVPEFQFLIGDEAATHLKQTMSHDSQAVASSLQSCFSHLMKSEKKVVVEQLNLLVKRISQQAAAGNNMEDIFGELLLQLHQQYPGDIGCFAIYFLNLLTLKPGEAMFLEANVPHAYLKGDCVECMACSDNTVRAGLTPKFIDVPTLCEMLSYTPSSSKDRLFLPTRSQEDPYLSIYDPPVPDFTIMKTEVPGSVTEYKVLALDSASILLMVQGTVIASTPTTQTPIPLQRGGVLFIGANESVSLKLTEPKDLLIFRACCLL

Small ubiquitin-related modifier 1, sequence (P63165 whole entry): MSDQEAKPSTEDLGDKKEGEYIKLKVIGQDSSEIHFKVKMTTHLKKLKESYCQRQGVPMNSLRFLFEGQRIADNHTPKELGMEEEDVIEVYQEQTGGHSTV
SUMO-activating enzyme, sequence (Q9UBE0 whole entry): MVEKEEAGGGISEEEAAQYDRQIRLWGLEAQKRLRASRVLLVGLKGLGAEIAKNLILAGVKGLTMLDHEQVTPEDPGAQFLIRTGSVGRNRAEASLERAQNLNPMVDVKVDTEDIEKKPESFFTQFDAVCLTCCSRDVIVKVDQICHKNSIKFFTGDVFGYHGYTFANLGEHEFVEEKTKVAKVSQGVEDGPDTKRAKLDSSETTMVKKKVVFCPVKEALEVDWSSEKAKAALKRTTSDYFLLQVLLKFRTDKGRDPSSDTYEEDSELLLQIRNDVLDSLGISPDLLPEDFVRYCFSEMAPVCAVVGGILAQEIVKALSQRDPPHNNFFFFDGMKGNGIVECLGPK
SUMO-activating enzyme, sequence (Q9UBT2 whole entry): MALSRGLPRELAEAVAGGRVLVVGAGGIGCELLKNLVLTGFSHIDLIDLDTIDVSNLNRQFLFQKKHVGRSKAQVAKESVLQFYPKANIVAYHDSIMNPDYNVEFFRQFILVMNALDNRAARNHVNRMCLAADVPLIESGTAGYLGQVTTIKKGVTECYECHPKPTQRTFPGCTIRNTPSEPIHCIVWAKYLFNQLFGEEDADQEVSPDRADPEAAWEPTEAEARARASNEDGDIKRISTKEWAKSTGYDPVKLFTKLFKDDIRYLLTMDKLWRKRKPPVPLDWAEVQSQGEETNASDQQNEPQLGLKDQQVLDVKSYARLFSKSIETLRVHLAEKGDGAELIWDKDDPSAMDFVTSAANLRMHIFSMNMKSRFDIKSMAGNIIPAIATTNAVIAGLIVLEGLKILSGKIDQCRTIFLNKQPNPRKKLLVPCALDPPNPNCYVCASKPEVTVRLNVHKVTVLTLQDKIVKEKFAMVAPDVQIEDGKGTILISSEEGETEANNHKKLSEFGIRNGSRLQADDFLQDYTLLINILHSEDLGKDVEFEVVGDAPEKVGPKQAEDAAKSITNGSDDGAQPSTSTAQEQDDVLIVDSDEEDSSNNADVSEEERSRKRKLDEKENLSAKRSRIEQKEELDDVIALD

COc1cc(C(=O)c2nccc3cc(OC)c(OC)cc23)c([N+](=O)[O-])cc1OC
IC50 [1]: 66.8 µM (active)

N#Cc1c(O)nc(SCC(=O)N2c3ccccc3Sc3ccccc32)nc1-c1ccccc1
IC50 [2]: 14.3 µM (active)
IC50 [3]: 19.8 µM (active)

N=C1S/C(=C\c2ccc(-c3ccccc3C(=O)O)o2)C(=O)N1c1ccc2c(c1)OCO2
IC50 [4]: 11.1 µM (active)
